Measurements reported in patent publication US12252524B2, “GIP/GLP1 co-agonist compounds” (Eli Lilly and Company, priority 2018, dated 2025).
Numbered stars: 1 amine (or outer) side, 2 acyl side, 3 side chain; on linkers, the order of the positions; unused ones are H or OH. Square brackets hold non-standard residues; d marks the D form. Side chains are listed from the residue outwards. Peptide text beside a SMILES is read from it. * marks the point of attachment. C20 diacid = O=C(O)CCCCCCCCCCCCCCCCCCC(=O)*; C18 diacid = O=C(O)CCCCCCCCCCCCCCCCC(=O)*; αMePhe(2-F) = C[C@](N)(Cc1ccccc1F)C(=O)O; γGlu = O=C(O)[C@H](CCC(=O)[*:2])N[*:1]; αMeF = C[C@](N)(Cc1ccccc1)C(=O)O; αMeL = CC(C)C[C@](C)(N)C(=O)O; AEEA = NCCOCCOCC(=O)O; Aib = CC(C)(N)C(=O)O

What was measured:
human GIP receptor = target: T1, human GIP receptor (Homo sapiens, UniProt P48546); assay: [125I]-GIP binding (SPA), human GIP receptor; conditions: read-out: hGIPR Ki, nM (SEM, n)
T1 construct: expressed in transfected cells; crude membranes
T1 sequence (P48546 22-466): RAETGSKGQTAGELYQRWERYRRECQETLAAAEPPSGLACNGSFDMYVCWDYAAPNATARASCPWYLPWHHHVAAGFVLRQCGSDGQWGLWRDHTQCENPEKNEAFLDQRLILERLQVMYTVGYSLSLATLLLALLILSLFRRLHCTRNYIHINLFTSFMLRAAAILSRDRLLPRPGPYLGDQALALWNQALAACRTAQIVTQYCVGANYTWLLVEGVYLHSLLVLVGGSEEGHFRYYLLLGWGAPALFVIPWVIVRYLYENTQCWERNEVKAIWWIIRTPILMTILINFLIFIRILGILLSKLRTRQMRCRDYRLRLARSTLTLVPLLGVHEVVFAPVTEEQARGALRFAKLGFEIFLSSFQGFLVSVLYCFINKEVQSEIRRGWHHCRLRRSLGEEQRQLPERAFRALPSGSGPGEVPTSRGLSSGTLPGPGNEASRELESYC

human Gcg receptor = target: T2, human Gcg receptor (Homo sapiens, UniProt P47871); assay: [125I]-Glucagon binding (SPA), human Gcg receptor; conditions: read-out: hGLcgR Ki, nM (SEM, n)
T2 construct: expressed in transfected cells; crude membranes
T2 sequence (P47871 26-477): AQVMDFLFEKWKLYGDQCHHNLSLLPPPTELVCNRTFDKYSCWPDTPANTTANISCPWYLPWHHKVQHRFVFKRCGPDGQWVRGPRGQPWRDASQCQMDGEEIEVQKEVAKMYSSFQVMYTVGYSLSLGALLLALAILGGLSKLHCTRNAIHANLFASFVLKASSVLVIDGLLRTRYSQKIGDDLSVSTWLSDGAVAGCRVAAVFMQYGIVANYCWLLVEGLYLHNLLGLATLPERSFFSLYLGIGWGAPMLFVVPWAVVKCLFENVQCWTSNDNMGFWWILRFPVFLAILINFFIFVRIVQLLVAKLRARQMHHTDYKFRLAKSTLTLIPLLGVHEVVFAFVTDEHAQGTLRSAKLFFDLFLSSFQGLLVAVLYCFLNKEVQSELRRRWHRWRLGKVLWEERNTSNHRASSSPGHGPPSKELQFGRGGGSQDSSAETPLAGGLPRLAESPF
Procedure, shortened: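 Cell pellets were lysed in hypotonic Tris buffer, pH 7.5, homogenized, and spun at low then high speed to give crude membranes. Ki was derived from the fitted IC50.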

[1] = target: T3, gastric inhibitory peptide receptor (GIPR) (Homo sapiens, UniProt P48546); assay: cAMP pharmacological functional assay in presence of casein, hGIPR; format: cell-based; conditions: HEK293 cells expressing hGIPR, 0.1% Casein, geometric mean; read-out: hGIPR cAMP Rel EC50 nM (SEM, n)
T3 sequence (P48546 22-466): T1 sequence (P48546 22-466)

[2] = target: human GLP-1 receptor (GLP-1R) (Homo sapiens, UniProt P43220); assay: cAMP pharmacological functional assay in presence of casein, hGLP-1R; format: cell-based; conditions: HEK293 cells expressing hGLP-1R, 0.1% Casein, geometric mean; read-out: hGLP1R cAMP Rel EC50 nM (SEM, n)
Chain of human GLP-1 receptor (GLP-1R) (P43220 24-463): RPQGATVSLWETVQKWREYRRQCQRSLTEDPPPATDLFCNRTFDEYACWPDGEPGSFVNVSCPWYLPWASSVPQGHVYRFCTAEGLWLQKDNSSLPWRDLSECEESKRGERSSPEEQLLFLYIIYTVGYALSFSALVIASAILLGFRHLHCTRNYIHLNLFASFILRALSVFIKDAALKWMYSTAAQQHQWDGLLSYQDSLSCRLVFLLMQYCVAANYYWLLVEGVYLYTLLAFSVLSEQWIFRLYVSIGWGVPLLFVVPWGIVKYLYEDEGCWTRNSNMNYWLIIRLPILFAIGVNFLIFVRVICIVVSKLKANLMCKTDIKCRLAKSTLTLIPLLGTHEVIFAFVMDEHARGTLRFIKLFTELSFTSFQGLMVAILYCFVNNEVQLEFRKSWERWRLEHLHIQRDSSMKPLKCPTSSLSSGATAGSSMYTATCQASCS

human GLP-1R = human GLP-1R (Homo sapiens, UniProt P43220); assay: [125I]-GLP-1 binding (SPA), human GLP-1 receptor; set-up: expressed in transfected cells; crude membranes; conditions: read-out: hGLP1R Ki, (nM) (SEM, n)
Chain of human GLP-1R (P43220 24-463): as above
Procedure, shortened: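 Ki values are geometric means with SEM over independent replicates on different days, derived from IC50s fitted by four-parameter nonlinear regression. The assay used crude cell membranes in HEPES buffer, pH 7.4, containing CaCl2, MgCl2, bacitracin and TWEEN-20.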

| SMILES | Ki (human GIP receptor) [nM] | Ki (human Gcg receptor) [nM] | EC50 [1] [nM] | EC50 [2] [nM] | Ki (human GLP-1R) [nM] |
| --- | --- | --- | --- | --- | --- |
| CC[C@H](C)[C@H](NC(=O)[C@H](CC(C)C)NC(=O)[C@H](Cc1ccc(O)cc1)NC(=O)[C@H](CCC(=O)O)NC(=O)[C@@H](NC(=O)[C@H](Cc1ccccc1)NC(=O)[C@H](CCC(=O)O)NC(=O)C(C)(C)NC(=O)[C@H](CCC(N)=O)NC(=O)[C@H](C)NC(=O)[C@H](CCCCNC(=O)COCCOCCNC(=O)COCCOCCNC(=O)CC[C@H](NC(=O)CCCCCCCCCCCCCCCCCCC(=O)O)C(=O)O)NC(=O)[C@H](CCC(=O)O)NC(=O)[C@H](CC(=O)O)NC(=O)[C@H](CC(C)C)NC(=O)[C@](C)(CC(C)C)NC(=O)[C@@H](NC(=O)[C@H](CO)NC(=O)[C@H](Cc1ccc(O)cc1)NC(=O)[C@H](CC(=O)O)NC(=O)[C@H](CO)NC(=O)[C@@H](NC(=O)[C@](C)(Cc1ccccc1)NC(=O)[C@@H](NC(=O)CNC(=O)[C@H](CCC(=O)O)NC(=O)C(C)(C)NC(=O)[C@@H](N)Cc1ccc(O)cc1)[C@@H](C)O)[C@@H](C)O)[C@@H](C)CC)[C@@H](C)CC)C(=O)N[C@@H](CCC(=O)O)C(=O)NCC(=O)NCC(=O)N1CCC[C@H]1C(=O)N[C@@H](CO)C(=O)N[C@@H](CO)C(=O)NCC(=O)N[C@@H](C)C(=O)N1CCC[C@H]1C(=O)N1CCC[C@H]1C(=O)N1CCC[C@H]1C(=O)N[C@@H](CO)C(N)=O [Example 116] (H-Y[Aib]EGT[αMeF]TSDYSI[αMeL]LDEK([AEEA-AEEA-γGlu-C20 diacid])AQ[Aib]EFIEYLIEGGPSSGAPPPS-NH2) | 0.0597 | 137 | 0.0867 | 0.0703 | 6.8 |
| CC[C@H](C)[C@H](NC(=O)[C@H](CCCCN)NC(=O)[C@H](CC(=O)O)NC(=O)[C@H](CC(C)C)NC(=O)[C@H](CC(C)C)NC(=O)[C@@H](NC(=O)[C@H](CO)NC(=O)[C@H](Cc1ccc(O)cc1)NC(=O)[C@H](CC(=O)O)NC(=O)[C@H](CO)NC(=O)[C@@H](NC(=O)[C@H](Cc1ccccc1)NC(=O)[C@@H](NC(=O)CNC(=O)[C@H](CCC(=O)O)NC(=O)C(C)(C)NC(=O)[C@@H](N)Cc1ccc(O)cc1)[C@@H](C)O)[C@@H](C)O)[C@@H](C)CC)C(=O)N[C@@H](C)C(=O)N[C@@H](CCC(N)=O)C(=O)NC(C)(C)C(=O)N[C@@H](CCCCNC(=O)COCCOCCNC(=O)COCCOCCNC(=O)CC[C@H](NC(=O)CCCCCCCCCCCCCCCCCCC(=O)O)C(=O)O)C(=O)N[C@@H](Cc1ccccc1)C(=O)N[C@H](C(=O)N[C@@H](CCC(=O)O)C(=O)N[C@@H](Cc1ccc(O)cc1)C(=O)N[C@@H](CC(C)C)C(=O)N[C@H](C(=O)N[C@@H](CCC(=O)O)C(=O)NCC(=O)NCC(=O)N1CCC[C@H]1C(=O)N[C@@H](CO)C(=O)N[C@@H](CO)C(=O)NCC(=O)N[C@@H](C)C(=O)N1CCC[C@H]1C(=O)N1CCC[C@H]1C(=O)N1CCC[C@H]1C(=O)N[C@@H](CO)C(N)=O)[C@@H](C)CC)[C@@H](C)CC [Example 32] (H-Y[Aib]EGTFTSDYSILLDKIAQ[Aib]K([AEEA-AEEA-γGlu-C20 diacid])FIEYLIEGGPSSGAPPPS-NH2) | 0.0205 | 44.7 | 0.179 | 0.498 | 3.96 |
| CC[C@H](C)[C@H](NC(=O)[C@H](CC(C)C)NC(=O)[C@H](Cc1ccc(O)cc1)NC(=O)[C@H](CCC(=O)O)NC(=O)[C@@H](NC(=O)[C@H](Cc1ccccc1)NC(=O)[C@H](CCC(=O)O)NC(=O)C(C)(C)NC(=O)[C@H](CCC(N)=O)NC(=O)[C@H](C)NC(=O)[C@H](CCCCNC(=O)COCCOCCNC(=O)COCCOCCNC(=O)CC[C@H](NC(=O)CCCCCCCCCCCCCCCCC(=O)O)C(=O)O)NC(=O)[C@H](CCCCN)NC(=O)[C@H](CC(=O)O)NC(=O)[C@H](CC(C)C)NC(=O)[C@H](CC(C)C)NC(=O)[C@@H](NC(=O)[C@H](CO)NC(=O)[C@H](Cc1ccc(O)cc1)NC(=O)[C@H](CC(=O)O)NC(=O)[C@H](CO)NC(=O)[C@@H](NC(=O)[C@](C)(Cc1ccccc1F)NC(=O)[C@@H](NC(=O)CNC(=O)[C@H](CCC(=O)O)NC(=O)C(C)(C)NC(=O)[C@@H](N)Cc1ccc(O)cc1)[C@@H](C)O)[C@@H](C)O)[C@@H](C)CC)[C@@H](C)CC)C(=O)N[C@@H](C)C(=O)NCC(=O)NCC(=O)N1CCC[C@H]1C(=O)N[C@@H](CO)C(=O)N[C@@H](CO)C(=O)NCC(N)=O [Example 314] (H-Y[Aib]EGT[αMePhe(2-F)]TSDYSILLDKK([AEEA-AEEA-γGlu-C18 diacid])AQ[Aib]EFIEYLIAGGPSSG-NH2) | 0.027 | 116 | 0.029 | 0.029 | 0.717 |
| CC[C@H](C)[C@H](NC(=O)[C@H](CC(C)C)NC(=O)[C@H](Cc1ccc(O)cc1)NC(=O)[C@H](CCC(=O)O)NC(=O)[C@@H](NC(=O)[C@H](Cc1ccccc1)NC(=O)[C@H](CCC(=O)O)NC(=O)C(C)(C)NC(=O)[C@H](CCC(N)=O)NC(=O)[C@H](C)NC(=O)[C@H](CCCCNC(=O)COCCOCCNC(=O)COCCOCCNC(=O)CC[C@H](NC(=O)CCCCCCCCCCCCCCCCCCC(=O)O)C(=O)O)NC(=O)[C@H](CCC(=O)O)NC(=O)[C@H](CC(=O)O)NC(=O)[C@H](CC(C)C)NC(=O)[C@](C)(CC(C)C)NC(=O)[C@@H](NC(=O)[C@H](CO)NC(=O)[C@H](Cc1ccc(O)cc1)NC(=O)[C@H](CC(=O)O)NC(=O)[C@H](CO)NC(=O)[C@@H](NC(=O)[C@](C)(Cc1ccccc1F)NC(=O)[C@@H](NC(=O)CNC(=O)[C@H](CCC(=O)O)NC(=O)C(C)(C)NC(=O)[C@@H](N)Cc1ccc(O)cc1)[C@@H](C)O)[C@@H](C)O)[C@@H](C)CC)[C@@H](C)CC)C(=O)N[C@@H](CCC(=O)O)C(=O)NCC(=O)NCC(=O)N1CCC[C@H]1C(=O)N[C@@H](CO)C(=O)N[C@@H](CO)C(=O)NCC(=O)N[C@@H](C)C(=O)N1CCC[C@H]1C(=O)N1CCC[C@H]1C(=O)N1CCC[C@H]1C(=O)N[C@@H](CO)C(N)=O [Example 118] (H-Y[Aib]EGT[αMePhe(2-F)]TSDYSI[αMeL]LDEK([AEEA-AEEA-γGlu-C20 diacid])AQ[Aib]EFIEYLIEGGPSSGAPPPS-NH2) | 0.0859 | 53 | 0.0538 | 0.0588 | 6.1 |
| CC[C@H](C)[C@H](NC(=O)[C@H](CC(C)C)NC(=O)[C@H](Cc1ccc(O)cc1)NC(=O)[C@H](CCC(=O)O)NC(=O)[C@@H](NC(=O)[C@H](Cc1ccccc1)NC(=O)[C@H](C)NC(=O)[C@H](C)NC(=O)[C@H](CCC(N)=O)NC(=O)[C@H](C)NC(=O)[C@H](CCCCNC(=O)COCCOCCNC(=O)COCCOCCNC(=O)CC[C@H](NC(=O)CCCCCCCCCCCCCCCCCCC(=O)O)C(=O)O)NC(=O)[C@H](CCCCN)NC(=O)[C@H](CC(=O)O)NC(=O)[C@H](CC(C)C)NC(=O)[C@H](CC(C)C)NC(=O)[C@@H](NC(=O)[C@H](CO)NC(=O)[C@H](Cc1ccc(O)cc1)NC(=O)[C@H](CC(=O)O)NC(=O)[C@H](CO)NC(=O)[C@@H](NC(=O)[C@H](Cc1ccccc1)NC(=O)[C@@H](NC(=O)CNC(=O)[C@H](CCC(=O)O)NC(=O)C(C)(C)NC(=O)[C@@H](N)Cc1ccc(O)cc1)[C@@H](C)O)[C@@H](C)O)[C@@H](C)CC)[C@@H](C)CC)C(=O)N[C@@H](CCC(=O)O)C(=O)NCC(=O)NCC(=O)N1CCC[C@H]1C(=O)N[C@@H](CO)C(=O)N[C@@H](CO)C(=O)NCC(=O)N[C@@H](C)C(=O)N1CCC[C@H]1C(=O)N1CCC[C@H]1C(=O)N1CCC[C@H]1C(=O)N[C@@H](CO)C(N)=O [Example 253] (H-Y[Aib]EGTFTSDYSILLDKK([AEEA-AEEA-γGlu-C20 diacid])AQAAFIEYLIEGGPSSGAPPPS-NH2) | 0.138 | > 912 | 0.219 | 0.109 | 2.57 |
